Laboratory results published in BindingDB's records for patent US20250066350 (Innovstone Therapeutics, 2025).

target: Serine/threonine-protein kinase ATR (Homo sapiens, UniProt Q13535); assay: ATR Enzyme Assay
Excerpt: I. Experimental Materials and Instruments1. ATR enzyme (Eurofins Pharma Discovery Services, 14-953M)2. GST-tagged P53 protein (Eurofins Pharma Discovery Services, 14-952M)3. 384-well plate (Geriner bio-one, 784075)4. U-bottom 96-well plate (Geriner bio-one, 651201)5. Anti-phospho-P53 protein antibody labeled with europium cryptate (cisbio, 61P08KAZ)6. Anti-GST antibody linked to d2 (cisbio, 61GSTDLB)7. ATP solution (Sigma, R0441)8. DTT (Sigma, D0632-259)9. HEPES (Sigma, 15630080)10. Microplate reader (Envision 2104 Multilabel Reader)II. Experimental Steps15 nM ATR enzyme, 80 nM P53 protein, 300 nM ATP (the final concentrations were 40 nM and 150 nM, respectively), and small molecule compounds of various concentrations (the final concentrations (nM) of the ten points were 2985.0, 895.5, 298.5, 110.56, 33.17, 11.06, 4.09, 1.23, 0.41 and 0.15, respectively, and the final dimethyl sulfoxide concentration was 0.498%) were mixed and incubated at room temperature for 90 minutes. 10 μL of 2× cocktail buffer was added to the mixture of ATR, compound and substrate in the assay plate (anti-phospho-p53-Eu and anti-GST-d2 were diluted in the assay buffer). The resulting mixture was centrifuged at 1000 rpm for 30 seconds, and incubated overnight at 4° C. in the dark (a total of 20 μl in each well). The FRET signal (endpoint) was measured in the Envision instrument (HTRF 665/612 ratio was calculated at 665 nm emission and 612 nm emission). Data were processed using GraphPad software.

Sequence of Serine/threonine-protein kinase ATR (Q13535 whole entry): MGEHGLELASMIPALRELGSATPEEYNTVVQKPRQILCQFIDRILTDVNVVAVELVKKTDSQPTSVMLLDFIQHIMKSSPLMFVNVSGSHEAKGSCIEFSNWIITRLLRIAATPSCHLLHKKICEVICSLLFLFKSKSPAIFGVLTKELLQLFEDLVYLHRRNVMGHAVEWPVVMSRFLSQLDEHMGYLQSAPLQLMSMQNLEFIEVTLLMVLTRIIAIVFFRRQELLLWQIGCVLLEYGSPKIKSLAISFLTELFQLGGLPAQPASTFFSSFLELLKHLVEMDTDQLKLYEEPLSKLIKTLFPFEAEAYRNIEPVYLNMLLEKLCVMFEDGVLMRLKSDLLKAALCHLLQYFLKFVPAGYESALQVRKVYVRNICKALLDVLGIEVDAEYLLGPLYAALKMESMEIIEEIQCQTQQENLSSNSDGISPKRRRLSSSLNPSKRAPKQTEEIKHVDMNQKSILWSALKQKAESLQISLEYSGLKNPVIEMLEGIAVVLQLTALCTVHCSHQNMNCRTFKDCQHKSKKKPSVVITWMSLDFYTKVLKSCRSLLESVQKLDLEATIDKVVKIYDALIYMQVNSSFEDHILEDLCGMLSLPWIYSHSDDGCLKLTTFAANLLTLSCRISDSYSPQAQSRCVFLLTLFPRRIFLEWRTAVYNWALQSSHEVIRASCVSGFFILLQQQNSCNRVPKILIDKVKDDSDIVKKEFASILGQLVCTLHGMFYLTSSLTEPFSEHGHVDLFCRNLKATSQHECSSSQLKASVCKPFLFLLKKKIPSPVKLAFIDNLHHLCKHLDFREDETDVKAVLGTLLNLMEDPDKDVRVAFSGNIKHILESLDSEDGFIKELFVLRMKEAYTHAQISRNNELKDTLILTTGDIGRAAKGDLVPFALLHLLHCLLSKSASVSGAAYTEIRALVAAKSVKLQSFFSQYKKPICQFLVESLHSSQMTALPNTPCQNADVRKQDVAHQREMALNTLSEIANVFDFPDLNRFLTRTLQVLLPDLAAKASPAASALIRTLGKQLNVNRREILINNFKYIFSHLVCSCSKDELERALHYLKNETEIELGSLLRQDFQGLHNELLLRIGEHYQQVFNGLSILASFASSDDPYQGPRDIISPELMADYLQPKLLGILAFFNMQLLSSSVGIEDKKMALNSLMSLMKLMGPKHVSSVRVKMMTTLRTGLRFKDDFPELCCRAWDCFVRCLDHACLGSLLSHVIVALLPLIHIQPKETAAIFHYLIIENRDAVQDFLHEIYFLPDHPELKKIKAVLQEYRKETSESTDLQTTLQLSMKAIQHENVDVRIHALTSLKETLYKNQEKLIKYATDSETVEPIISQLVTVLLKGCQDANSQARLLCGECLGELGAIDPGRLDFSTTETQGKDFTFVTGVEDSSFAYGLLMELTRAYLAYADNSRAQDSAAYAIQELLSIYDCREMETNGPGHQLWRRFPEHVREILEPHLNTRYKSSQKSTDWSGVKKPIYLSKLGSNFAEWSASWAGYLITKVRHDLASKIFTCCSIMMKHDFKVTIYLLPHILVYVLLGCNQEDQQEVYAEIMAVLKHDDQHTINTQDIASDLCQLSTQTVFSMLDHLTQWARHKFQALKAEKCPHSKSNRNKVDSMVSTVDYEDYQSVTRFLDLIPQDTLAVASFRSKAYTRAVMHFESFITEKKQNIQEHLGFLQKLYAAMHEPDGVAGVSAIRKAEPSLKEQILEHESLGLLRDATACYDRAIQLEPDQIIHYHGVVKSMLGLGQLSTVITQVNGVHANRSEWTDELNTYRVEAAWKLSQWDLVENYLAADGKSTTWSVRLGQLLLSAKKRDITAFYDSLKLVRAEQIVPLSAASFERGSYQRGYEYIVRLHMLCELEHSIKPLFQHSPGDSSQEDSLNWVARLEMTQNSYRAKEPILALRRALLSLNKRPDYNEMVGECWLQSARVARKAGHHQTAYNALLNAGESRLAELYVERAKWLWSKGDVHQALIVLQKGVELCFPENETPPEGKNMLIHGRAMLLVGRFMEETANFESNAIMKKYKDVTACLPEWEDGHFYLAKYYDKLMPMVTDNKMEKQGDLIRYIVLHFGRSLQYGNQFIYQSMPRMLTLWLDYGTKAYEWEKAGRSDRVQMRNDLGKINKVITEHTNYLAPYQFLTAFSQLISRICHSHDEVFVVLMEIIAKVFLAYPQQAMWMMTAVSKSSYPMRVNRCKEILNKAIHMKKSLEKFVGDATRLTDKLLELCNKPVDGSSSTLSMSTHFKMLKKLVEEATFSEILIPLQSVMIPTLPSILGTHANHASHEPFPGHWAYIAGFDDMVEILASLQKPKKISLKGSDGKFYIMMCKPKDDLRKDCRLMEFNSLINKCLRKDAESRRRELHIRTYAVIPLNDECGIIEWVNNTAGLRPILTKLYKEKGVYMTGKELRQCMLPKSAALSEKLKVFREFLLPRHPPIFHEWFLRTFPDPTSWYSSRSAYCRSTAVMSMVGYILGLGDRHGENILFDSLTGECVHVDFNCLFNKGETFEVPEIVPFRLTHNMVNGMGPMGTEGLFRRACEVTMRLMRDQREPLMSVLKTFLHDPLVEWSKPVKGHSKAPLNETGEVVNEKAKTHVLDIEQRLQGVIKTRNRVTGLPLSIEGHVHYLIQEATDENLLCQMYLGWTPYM

IC50, < 10 nM:
Cc1[nH]nc(C(F)(F)F)c1-c1cc(N2CCOC[C@H]2C)nc2c1cnn2-c1cc[nH]n1 [US20250066350, Example 1]
C[C@@H]1COCCN1c1cc(C2(O)CCC3(CC2)CO3)c2cnn(-c3cc[nH]n3)c2n1 (stereo partly specified) [US20250066350, Example 2]
Cc1nn(C2CCNCC2)c(C(F)(F)F)c1-c1cc(N2CCOC[C@H]2C)nc2c1cnn2-c1cc[nH]n1 [US20250066350, Example 3]
Cc1c(-c2cc(N3CCOC[C@H]3C)nc3c2cnn3-c2cc[nH]n2)c(C(F)(F)F)nn1C1CCNCC1 [US20250066350, Example 4]
COCC#Cc1cc(N2CCOC[C@H]2C)nc2c1cnn2-c1cc[nH]n1 [US20250066350, Example 5]
C[C@@H]1COCCN1c1cc(C#CC2(O)CCCCC2)c2cnn(-c3cc[nH]n3)c2n1 [US20250066350, Example 6]
C[C@@H]1COCCN1c1cc(-c2ccc(N3CCCCC3=O)cc2)c2cnn(-c3cc[nH]n3)c2n1 [US20250066350, Example 7]
C[C@@H]1COCCN1c1cc(C2=CCCOC2)c2cnn(-c3cc[nH]n3)c2n1 [US20250066350, Example 8]
Cc1ccc(-c2cc(N3CCOC[C@H]3C)nc3c2cnn3-c2cc[nH]n2)cn1 [US20250066350, Example 9]
C[C@@H]1COCCN1c1cc(C#CC2(O)CCC3(CC2)CC3)c2cnn(-c3ccn[nH]3)c2n1 [US20250066350, Example 10]
C[C@@H]1COCCN1c1cc(-c2ccnc3[nH]ccc23)c2cnn(-c3cc[nH]n3)c2n1 [US20250066350, Example 11]
C[C@@H]1COCCN1c1cc(C2CCCOC2)c2cnn(-c3cc[nH]n3)c2n1 (stereo partly specified) [US20250066350, Example 13]
C[C@@H]1COCCN1c1cc(-c2ccc(N3CC4(COC4)C3)cc2)c2cnn(-c3cc[nH]n3)c2n1 [US20250066350, Example 15]
C[C@@H]1COCCN1c1cc(C#CC(C)(C)O)c2cnn(-c3cc[nH]n3)c2n1 [US20250066350, Example 16]
C[C@@H]1COCCN1c1cc(-c2ccc(N3CC4CCC(O4)C3=O)cc2)c2cnn(-c3cc[nH]n3)c2n1 (stereo partly specified) [US20250066350, Example 65]
C[C@@H]1COCCN1c1cc(-c2ccc(NC(=O)c3cccc(S(C)(=O)=O)c3)cc2)c2cnn(-c3cc[nH]n3)c2n1 [US20250066350, Example 145]
CCC(CC)C(=O)Nc1ccc(-c2cc(N3CCOC[C@H]3C)nc3c2cnn3-c2cc[nH]n2)cc1 [US20250066350, Example 151]
C[C@@H]1COCCN1c1cc(-c2ccc(N3CCCCCC3=O)cc2)c2cnn(-c3cc[nH]n3)c2n1 [US20250066350, Example 153]
C[C@@H]1COCCN1c1cc(-c2ccc(NC(=O)C3CCOCC3)cc2)c2cnn(-c3cc[nH]n3)c2n1 [US20250066350, Example 155]
C[C@@H]1COCCN1c1cc(-c2ccc(NC(=O)C3CCNC3)cc2)c2cnn(-c3cc[nH]n3)c2n1 (stereo partly specified) [US20250066350, Example 157]
C[C@@H]1COCCN1c1cc(-c2ccc(NC(=O)C3CCCNC3)cc2)c2cnn(-c3cc[nH]n3)c2n1 (stereo partly specified) [US20250066350, Example 159]
CC(=O)N1CCC(C(=O)Nc2ccc(-c3cc(N4CCOC[C@H]4C)nc4c3cnn4-c3cc[nH]n3)cc2)C1 (stereo partly specified) [US20250066350, Example 161]
C[C@@H]1COCCN1c1cc(-c2ccc(NC(=O)c3ccccc3)cc2)c2cnn(-c3cc[nH]n3)c2n1 [US20250066350, Example 163]
C[C@@H]1COCCN1c1cc(-c2ccc(NC(=O)c3ccncn3)cc2)c2cnn(-c3cc[nH]n3)c2n1 [US20250066350, Example 165]
C[C@@H]1COCCN1c1cc(-c2ccc(N3CCCCC3=O)nc2)c2cnn(-c3cc[nH]n3)c2n1 [US20250066350, Example 167]
C[C@@H]1COCCN1c1cc(-c2ccc(N3CCCCC3=O)c(C#N)c2)c2cnn(-c3cc[nH]n3)c2n1 [US20250066350, Example 169]
C[C@@H]1COCCN1c1cc(-c2ccc(N3CCCCC3=O)c(F)c2)c2cnn(-c3cc[nH]n3)c2n1 [US20250066350, Example 171]
C[C@@H]1COCCN1c1cc(-c2ccc3c(c2)CCN3C(=O)c2ccncc2)c2cnn(-c3cc[nH]n3)c2n1 [US20250066350, Example 183]
C[C@@H]1COCCN1c1cc(-c2ccc(NC(=O)NC34CC5CC(CC(C5)C3)C4)cc2)c2cnn(-c3cc[nH]n3)c2n1 [US20250066350, Example 187]
C[C@@H]1COCCN1c1cc(-c2ccc(NC(=O)c3cccnc3)cc2F)c2cnn(-c3cc[nH]n3)c2n1 [US20250066350, Example 195]
C[C@@H]1COCCN1c1cc(-c2ccc(N3CCCCCC3=O)cc2F)c2cnn(-c3cc[nH]n3)c2n1 [US20250066350, Example 197]
C[C@@H]1COCCN1c1cc(-c2ccc(N3CC4CCC(O4)C3=O)cc2F)c2cnn(-c3cc[nH]n3)c2n1 (stereo partly specified) [US20250066350, Example 199]
C[C@@H]1COCCN1c1cc(-c2ccc(NC(=O)N3CCCC3)cc2)c2cnn(-c3cc[nH]n3)c2n1 [US20250066350, Example 207]
C[C@@H]1COCCN1c1cc(C#CC2CCCNC2)c2cnn(-c3ccn[nH]3)c2n1 (stereo partly specified) [US20250066350, Example 209]
C[C@@H]1COCCN1c1cc(-c2ccc(NC(=O)C3CCN(C)C3)cc2)c2cnn(-c3cc[nH]n3)c2n1 (stereo partly specified) [US20250066350, Example 213]
CNC(=O)N(C)c1ccc(-c2cc(N3CCOC[C@H]3C)nc3c2cnn3-c2cc[nH]n2)cc1 [US20250066350, Example 215]
C[C@@H]1COCCN1c1cc(-c2ccc(NC(=O)C(F)F)cc2)c2cnn(-c3cc[nH]n3)c2n1 [US20250066350, Example 217]
C[C@@H]1COCCN1c1cc(-c2ccc(N3CCCCC3=O)cc2C(F)(F)F)c2cnn(-c3cc[nH]n3)c2n1 [US20250066350, Example 242]
CC1CCCN1C(=O)Nc1ccc(-c2cc(N3CCOC[C@H]3C)nc3c2cnn3-c2cc[nH]n2)c(F)c1 (stereo partly specified) [US20250066350, Example 252]
C[C@@H]1COCCN1c1cc(-c2ccc(-c3ccnn3C)cc2F)c2cnn(-c3cc[nH]n3)c2n1 [US20250066350, Example 258]
C[C@@H]1COCCN1c1cc(-c2cc(C#N)c(N3CCCCC3=O)cc2F)c2cnn(-c3cc[nH]n3)c2n1 [US20250066350, Example 259]
